We go through 2 compounds from ChEMBL document CHEMBL3272126 (J Med Chem, 1977).

As usually defined, the ED50 is the midpoint of the dose-response relation.

The test system of data set [1] is Mus musculus. Description: Anti-tremorine activity against sc dosed albino mouse assessed as normalized dose for reversal of tremorine-induced spontaneous activity depression. The format is functional.
Data set [2] concerns Mus musculus. Nature of the data set: Toxicity in sc dosed albino mouse assessed as mydriasis. The format is organism-based. The settings on record: in vivo.

On to `CN1[C@@H]2CC[C@H]1CC(OC(=O)[C@H](CO)c1ccccc1)C2` (stereo partly drawn) [ENDO-ATROPINE], for which the ND in data set [1] turned out to be 2.2 mg/kg. In data set [2], the ED50 is 0.061 mg/kg.
For the compound `CN1[C@@H]2C[C@@H](OC(=O)[C@H](CO)c3ccccc3)C[C@H]1[C@@H]1O[C@@H]12` [SCOPOLAMINE], the ND in data set [1] was determined as 1.3 mg/kg. The ED50 in data set [2] came out at 0.012 mg/kg.
